# Measurements from US12441704B2, “Compounds active towards nuclear receptors” (NUEVOLUTION A/S, priority 2019, dated 2025).
# Where two headings read alike, the source gives them in different places.
# Experiments:
# [1] = tested on: IL-17A secretion in activated PBMCs; test: IL-17A secretion in activated PBMCs; format: cell-based, human; details: for IC50: human PBMCs stimulated with CD3/CD28 Dynabeads for 48 h, absolute IC50; for inhibition at 10 µM: human PBMCs stimulated with CD3/CD28 Dynabeads
# Description: Heparin-treated whole blood from healthy human volunteers was supplied from Hospital de Sant Pau (Barcelona) under the approval of the local ethical review board for human studies (Hospital de Sant Pau, Barcelona, Spain). Human peripheral blood mononuclear cells (PBMCs) were isolated from healthy human volunteers by density gradient centrifugation using the Ficoll-Paque (GE Healthcare). […] Cells were seeded in 384-well plate (DiscoverX), at 40,000 cells per well and cultured 2 h at 37° C. and 5% CO2.
# Dose-response curves with compounds were prepared using a 5-fold serial dilution (10 concentrations) in 100% DMSO and further diluted 100-fold in culture medium. Compound solutions (5 μL) were added to the plate containing cells (final DMSO concentration of 0.1%) and incubated for 30 min. Then, cells were stimulated with CD3/CD28 Dynabeads (ThermoFisher, at a bead-to-cell ratio of 1:1) for 48 h at 37° C. and 5% CO2.
# IL-17A levels in supernatant were determined by immunoassay using hIL17A QBeads (Intellicyt) and by fluorescence analysis in iQue flow cytometer following the manufacturer's instructions. Inhibition of IL-17A secretion was calculated using the following formula: inhibition=100*[1−[(x−mean basal condition)/(mean top condition−mean basal condition)]]. Activated DMSO-treated cells were used as top condition and activated GNE09461 (10 μM)-treated cells as basal condition.
# [2] = biological target: T1, RORγ ligand-binding domain fused to Gal4 (Homo sapiens, UniProt P51449); test: RORγ Reporter Assay (Gal4); format: cell-based
# T1 construct: Gal4 (galactose-responsive transcription factor); expressed in transfected cells; host or cells: HEK293
# T1 sequence (P51449 269-508 limits assumed): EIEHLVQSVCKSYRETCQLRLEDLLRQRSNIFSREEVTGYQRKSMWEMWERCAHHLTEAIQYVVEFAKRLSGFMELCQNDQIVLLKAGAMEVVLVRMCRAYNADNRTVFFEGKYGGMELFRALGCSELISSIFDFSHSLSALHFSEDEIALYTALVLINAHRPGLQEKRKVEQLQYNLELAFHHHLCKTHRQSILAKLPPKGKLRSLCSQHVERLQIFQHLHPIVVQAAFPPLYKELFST
# In short: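 Percent inhibition was derived from luciferase RLU versus vehicle mean after 24 h compound incubation (37 °C, 0.1% DMSO). The cells were HEK293, transiently co-expressing a Gal4–RORγ ligand-binding-domain fusion plus a UAS-driven luciferase gene.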
# [3] = HEK293 cells co-transfected with RORγ LBD-Gal4 and luciferase reporter, 24 h incubation, absolute EC50, read-out: EC50
# [4] = compounds of the present disclosure, value from Table 2 herein, read-out: Gal4 assay EC50
SMILES,"IC50 ([1]; Homo sapiens, PBMC, 48 h) [nM]","EC50 [2, 3] [nM]",inhibition at 10 µM ([1]; PBMC) [%],"EC50 [2, 4] [nM]",IC50 [1] [nM]
"NC(=O)CN1CC[C@@H](CNc2ncnc(N(Cc3ccc(C(F)(F)F)cc3)C3CC3)c2F)[C@H](O)C1 (stereo in doubt) [Example A7-01, rac-2-((3R,4R)-4-(((6-(Cyclopropyl(4-(trifluoromethyl)benzyl)amino)-5-fluoropyrimidin-4-yl)amino)methyl)-3-hydroxypiperidin-1-yl)acetamide]",8.7,–,–,–,–
"NC(=O)CN1CC[C@H](CNc2ncnc(N(Cc3ccc(C(O)(C(F)(F)F)C(F)(F)F)cc3)C3CC3)c2F)[C@@H](O)C1 (stereo in doubt) [Example A7-54-2, rel-2-((3R,4R)-4-(((6-(cyclopropyl(4-(1,1,1,3,3,3-hexafluoro-2-hydroxypropan-2-yl)benzyl)amino)-5-fluoropyrimidin-4-yl)amino)methyl)-3-hydroxypiperidin-1-yl)acetamide]",6.2,2.5,–,–,–
"[2H]C([2H])([2H])N(Cc1ccc(C(F)(F)F)cc1)c1ncnc(NC[C@@H]2CCN(CC(N)=O)C[C@H]2O)c1F (racemic) [Example A7-60, rac-2-((3R,4R)-4-(((5-fluoro-6-((methyl-d3)(4-(trifluoromethyl)benzyl)amino)pyrimidin-4-yl)amino)methyl)-3-hydroxypiperidin-1-yl)acetamide]",87,–,–,–,–
"NC(=O)CN1CC[C@@H](CNc2ncnc(N(Cc3ccc(C(F)(F)F)cn3)C3CC3)c2F)[C@H](O)C1 (racemic) [Example A7-14, rac-2-((3R,4R)-4-(((6-(cyclopropyl((5-(trifluoromethyl)pyridin-2-yl)methyl)amino)-5-fluoropyrimidin-4-yl)amino)methyl)-3-hydroxypiperidin-1-yl)acetamide]",28,15,–,–,–
"CCN(Cc1ccc(C(F)(F)F)cc1)c1ncnc(NC[C@@H]2CCN(C(C(N)=O)c3ccncc3)C[C@H]2O)c1F (mixture of isomers) [Example A7-62, rac-2-((3R,4R)-4-(((6-(Ethyl(4-(trifluoromethyl)benzyl)amino)-5-fluoropyrimidin-4-yl)amino)methyl)-3-hydroxypiperidin-1-yl)-2-(pyridin-4-yl)acetamide]",7.2,1.8,–,–,–
"CCN(Cc1ccc(C#N)cc1)c1ncnc(NC[C@@H]2CCN(CC(N)=O)C[C@H]2O)c1F (racemic) [Example A7-78, rac-2-((3R,4R)-4-(((6-((4-cyanobenzyl)(ethyl)amino)-5-fluoropyrimidin-4-yl)amino)methyl)-3-hydroxypiperidin-1-yl)acetamide]",–,65,70,–,–
"NC(=O)CN1CC[C@@H](CNc2ncnc(N(Cc3ccc(OC(F)F)cc3)C3CC3)c2F)[C@H](O)C1 (racemic) [Example A7-43, rac-2-((3R,4R)-4-(((6-(cyclopropyl(4-(difluoromethoxy)benzyl)amino)-5-fluoropyrimidin-4-yl)amino)methyl)-3-hydroxypiperidin-1-yl)acetamide]",35,11,–,–,–
"CCN(Cc1ccc(C(F)(F)F)cc1)c1ncnc(NC[C@@H]2CCN(C(C)(C)C(N)=O)C[C@H]2O)c1F (relative stereo) [Example A7-57, rel-2-((3R,4R)-4-(((6-(ethyl(4-(trifluoromethyl)benzyl)amino)-5-fluoropyrimidin-4-yl)amino)methyl)-3-hydroxypiperidin-1-yl)-2-methylpropanamide]",39,–,–,–,–
"NC(=O)CN1CC[C@@H](CNc2ncnc(N(Cc3ccc(C(F)(F)F)nc3)C3CC3)c2F)[C@H](O)C1 (racemic) [Example A7-28, rac-2-((3R,4R)-4-(((6-(cyclopropyl((6-(trifluoromethyl)pyridin-3-yl)methyl)amino)-5-fluoropyrimidin-4-yl)amino)methyl)-3-hydroxypiperidin-1-yl)acetamide]",120,20.5,–,–,–
"NC(=O)CN1CCC(O)(CNc2ncnc(N(Cc3ccc(C(F)(F)F)cn3)C3CC3)c2F)CC1 [Example A7-09, 2-(4-(((6-(cyclopropyl((5-(trifluoromethyl)pyridin-2-yl)methyl)amino)-5-fluoropyrimidin-4-yl)amino)methyl)-4-hydroxypiperidin-1-yl)acetamide]",190,44,–,< 100,–
"NC(=O)CN1CCC(CNc2ncnc(N(Cc3ccc(C(F)(F)F)cc3)C3CC3)c2F)(c2cnn[nH]2)CC1 [Example A7-85, 2-(4-(((6-(Cyclopropyl(4-(trifluoromethyl)benzyl)amino)-5-fluoropyrimidin-4-yl)amino)methyl)-4-(1H-1,2,3-triazol-5-yl)piperidin-1-yl)acetamide]",120,7.9,–,–,–
"CCN(Cc1ccc(C(O)(C(F)(F)F)C(F)(F)F)cc1)c1ncnc(NC[C@]2(O)CCN(CC(N)=O)C[C@H]2O)c1F (relative stereo) [Example D5-04, rel-2-((3R,4R)-4-(((6-(ethyl(4-(1,1,1,3,3,3-hexafluoro-2-hydroxypropan-2-yl)benzyl)amino)-5-fluoropyrimidin-4-yl)amino)methyl)-3,4-dihydroxypiperidin-1-yl)acetamide]",1,5.5,–,–,–
"NC(=O)CN1CC[C@H](CNc2ncnc(N(Cc3ccc(C(F)(F)F)nc3)C3CC3)c2F)[C@@H](O)C1 (single isomer, unassigned) [Example A7-28-2]",81,–,–,< 100,–
"NC(=O)CN1CCC(CO)(CNc2ncnc(N(Cc3ccc(C(F)(F)F)cn3)C3CC3)c2F)CC1 [Example A7-52, 2-(4-(((6-(cyclopropyl((5-(trifluoromethyl)pyridin-2-yl)methyl)amino)-5-fluoropyrimidin-4-yl)amino)methyl)-4-(hydroxymethyl)piperidin-1-yl)acetamide]",130,42,–,< 100,–
"NC(=O)CN1CCC(O)(CNc2ncnc(N(Cc3ccc(C(F)(F)F)cc3)C3CC3)c2F)CC1 [Example A7-10, 2-(4-(((6-(cyclopropyl(4-(trifluoromethyl)benzyl)amino)-5-fluoropyrimidin-4-yl)amino)methyl)-4-hydroxypiperidin-1-yl)acetamide]",17,3.3,–,–,–
"NC(=O)CN1CC[C@@H](CNc2ncnc(N(Cc3cccc(OC(F)(F)F)c3)C3CC3)c2F)[C@H](O)C1 (racemic) [Example A7-56, rac-2-((3R,4R)-4-(((6-(cyclopropyl(3-(trifluoromethoxy)benzyl)amino)-5-fluoropyrimidin-4-yl)amino)methyl)-3-hydroxypiperidin-1-yl)acetamide]",–,5.3,66,< 100,–
"CCN(Cc1ccc(C(F)(F)F)cc1)c1ncnc(NC[C@@H]2CCN([C@H](CO)C(N)=O)C[C@H]2O)c1F (relative stereo) [Example A7-66-1, rel-(R)-2-((3R,4R)-4-(((6-(ethyl(4-(trifluoromethyl)benzyl)amino)-5-fluoropyrimidin-4-yl)amino)methyl)-3-hydroxypiperidin-1-yl)-3-hydroxypropanamide OR rel-(R)-2-((3S,4S)-4-(((6-(ethyl(4-(trifluoromethyl)benzyl)amino)-5-fluoropyrimidin-4-yl)amino)methyl)-3-hydroxypiperidin-1-yl)-3-hydroxypropanamide]",18,26,–,–,–
"Cn1cc(-c2ccc(CN(c3ncnc(NC[C@]4(O)CCN(CC(N)=O)C[C@H]4O)c3F)C3CC3)c(F)c2)cn1 (single isomer, unassigned) [Example D5-05-1]",–,–,–,–,23
"NC(=O)CN1CC[C@@H](CNc2ncnc(N(Cc3ccc(-n4cccn4)cc3)C3CC3)c2F)[C@H](O)C1 (racemic) [Example A7-86, rac-2-((3R,4R)-4-(((6-((4-(1H-pyrazol-1-yl)benzyl)(cyclopropyl)amino)-5-fluoropyrimidin-4-yl)amino)methyl)-3-hydroxypiperidin-1-yl)acetamide]",55,–,–,–,–
"NC(=O)CN1CCC(CNc2ncnc(N(Cc3ccc(C(F)(F)F)cc3)C3CC3)c2F)CC1 [Example A7-39, 2-(4-(((6-(cyclopropyl(4-(trifluoromethyl)benzyl)amino)-5-fluoropyrimidin-4-yl)amino)methyl)piperidin-1-yl)acetamide]",–,37,–,–,–
